{"source": "patent US20210060033A1", "about": "“ORALLY ADMINISTERED COMBINATIONS OF BETA-LACTAM ANTIBIOTICS AND AVIBACTAM DERIVATIVES FOR TREATING BACTERIAL INFECTIONS” (priority 2019, published 2021)", "key": {"[1]": {"system": "K. pneumoniae 4582", "assay": "Microbroth MIC, K. pneumoniae 4582", "format": "cell-based, Klebsiella pneumoniae", "conditions": "K. pneumoniae 4582 (KPC-3); listed as AVI"}, "[2]": {"system": "K. pneumoniae 700603", "assay": "Microbroth MIC, K. pneumoniae 700603", "format": "cell-based", "conditions": "Klebsiella pneumoniae; K. pneumoniae 700603 (SHV-18)"}, "[3]": {"system": "K. pneumoniae 4582", "assay": "Agar MIC, K. pneumoniae 4582", "format": "cell-based, Klebsiella pneumoniae", "conditions": "Klebsiella pneumoniae; K. pneumoniae 4582 (KPC-3); read-out: agar MIC"}, "[4]": {"system": "E. coli 470-21711", "assay": "Agar MIC, E. coli 470-21711", "format": "cell-based", "conditions": "Escherichia coli, 47021711; E. coli 470-21711 (CTX-M-15)"}, "[5]": {"system": "E. cloacae 0060", "assay": "Microbroth MIC, E. cloacae 0060", "format": "cell-based", "conditions": "Enterobacter cloacae; E. cloacae 0060 (cAmpC)"}, "[6]": {"system": "K. pneumoniae 700603", "assay": "Agar MIC, K. pneumoniae 700603", "format": "cell-based", "conditions": "Klebsiella pneumoniae; K. pneumoniae 700603 (SHV-18)"}, "[7]": {"system": "E. cloacae 4182", "assay": "Microbroth MIC, E. cloacae 4182", "format": "cell-based", "conditions": "Enterobacter cloacae; E. cloacae 4182 (De-repressed AmpC)"}, "[8]": {"system": "E. cloacae 4182", "assay": "Agar MIC, E. cloacae 4182", "format": "cell-based", "conditions": "Enterobacter cloacae; E. cloacae 4182 (De-repressed AmpC)"}, "[9]": {"system": "E. coli ATCC 25922", "assay": "Microbroth MIC, E. coli ATCC 25922", "format": "cell-based", "conditions": "Escherichia coli, ATCC25922; E. coli ATCC 25922 (Wildtype); read-out: Microbroth MIC"}, "[10]": {"system": "K. pneumoniae 15160", "assay": "Agar MIC, K. pneumoniae 15160", "format": "cell-based", "conditions": "Klebsiella pneumoniae; K. pneumoniae 15160 (CTX-M-15, CTX-M-2, OXA-10, OXA-1, SHV-11, TEM-1)"}, "[11]": {"conditions": "human; cited from earlier work"}, "[12]": {"system": "K. pneumoniae 908", "assay": "Microbroth MIC, K. pneumoniae 908", "format": "cell-based, Klebsiella pneumoniae", "conditions": "Klebsiella pneumoniae; K. pneumoniae 908 (KPC-2, SHV-27, TEM-1); read-out: Microbroth MIC"}, "[13]": {"system": "E. coli 136-4643", "assay": "Microbroth MIC, E. coli 136-4643", "format": "cell-based", "conditions": "Escherichia coli, 1364643; E. coli 136-4643 (CTX-M-15)"}, "[14]": {"system": "K. pneumoniae 79", "assay": "Agar MIC, K. pneumoniae 79", "format": "cell-based, Klebsiella pneumoniae", "conditions": "Klebsiella pneumoniae; K. pneumoniae 79 (KPC-3, FOX-5, TEM-1 SHV-11); read-out: agar MIC"}, "[15]": {"system": "K. pneumoniae 27144", "assay": "Agar MIC, K. pneumoniae 27144", "format": "cell-based", "conditions": "Klebsiella pneumoniae; K. pneumoniae 27144 (CTX-M-15, OXA-1, OXA-48, SHV-11, TEM-1)"}, "[16]": {"system": "E. cloacae 0065", "assay": "Microbroth MIC, E. cloacae 0065", "format": "cell-based", "conditions": "Enterobacter cloacae; E. cloacae 0065 (cAmpC)"}, "[17]": {"system": "E. cloacae 0002", "assay": "Microbroth MIC, E. cloacae 0002", "format": "cell-based, Enterobacter cloacae", "conditions": "Enterobacter cloacae; E. cloacae 0002 (KPC-3, OXA-9, TEM-1A); read-out: Microbroth MIC"}, "[18]": {"system": "E. cloacae 4184", "assay": "Microbroth MIC, E. cloacae 4184", "format": "cell-based", "conditions": "Enterobacter cloacae; E. cloacae 4184 (De-repressed AmpC)"}, "[19]": {"system": "K. pneumoniae 19701", "assay": "Microbroth MIC, K. pneumoniae 19701", "format": "cell-based, Klebsiella pneumoniae", "conditions": "Klebsiella pneumoniae; K. pneumoniae 19701 (KPC-2); read-out: Microbroth MIC"}, "[20]": {"system": "K. pneumoniae 908", "assay": "Agar MIC, K. pneumoniae 908", "format": "cell-based, Klebsiella pneumoniae", "conditions": "Klebsiella pneumoniae; K. pneumoniae 908 (KPC-2, SHV-27, TEM-1); read-out: agar MIC"}, "[21]": {"system": "E. coli ATCC 35218", "assay": "Agar MIC, E. coli ATCC 35218", "format": "cell-based", "conditions": "Escherichia coli, ATCC35218; E. coli ATCC 35218 (TEM-1 Quality Control Strain)"}, "[22]": {"system": "K. pneumoniae 27144", "assay": "Microbroth MIC, K. pneumoniae 27144", "format": "cell-based", "conditions": "Klebsiella pneumoniae; K. pneumoniae 27144 (CTX-M-15, OXA-1, OXA-48, SHV-11, TEM-1)"}, "[23]": {"system": "E. coli ATCC 25922", "assay": "Agar MIC, E. coli ATCC 25922", "format": "cell-based", "conditions": "Escherichia coli, ATCC25922; E. coli ATCC 25922 (Wildtype)"}, "[24]": {"system": "E. cloacae 0065", "assay": "Agar MIC, E. cloacae 0065", "format": "cell-based", "conditions": "Enterobacter cloacae; E. cloacae 0065 (cAmpC)"}, "[25]": {"system": "E. coli ATCC 35218", "assay": "Microbroth MIC, E. coli ATCC 35218", "format": "cell-based", "conditions": "Escherichia coli, ATCC35218; E. coli ATCC 35218 (TEM-1 Quality Control Strain)"}, "[26]": {"system": "E. coli 136-4643", "assay": "Agar MIC, E. coli 136-4643", "format": "cell-based", "conditions": "Escherichia coli, 1364643; E. coli 136-4643 (CTX-M-15)"}, "[27]": {"system": "E. cloacae 4184", "assay": "Agar MIC, E. cloacae 4184", "format": "cell-based", "conditions": "Enterobacter cloacae; E. cloacae 4184 (De-repressed AmpC)"}, "[28]": {"system": "E. cloacae 0002", "assay": "Agar MIC, E. cloacae 0002", "format": "cell-based, Enterobacter cloacae", "conditions": "Enterobacter cloacae; E. cloacae 0002 (KPC-3, OXA-9, TEM-1A); read-out: agar MIC"}, "[29]": {"system": "K. pneumoniae ATCC BAA-1705", "assay": "Microbroth MIC, K. pneumoniae ATCC BAA-1705", "format": "cell-based", "conditions": "Klebsiella pneumoniae, ATCCBAA1705; K. pneumoniae ATCC BAA-1705 (KPC-2); read-out: Microbroth MIC"}, "[30]": {"system": "K. pneumoniae 79", "assay": "Microbroth MIC, K. pneumoniae 79", "format": "cell-based, Klebsiella pneumoniae", "conditions": "K. pneumoniae 79 (KPC-3, FOX-5, TEM-1 SHV-11); listed as AVI"}, "[31]": {"system": "E. coli 470-21711", "assay": "Microbroth MIC, E. coli 470-21711", "format": "cell-based", "conditions": "Escherichia coli, 47021711; E. coli 470-21711 (CTX-M-15)"}, "[32]": {"system": "K. pneumoniae 19701", "assay": "Agar MIC, K. pneumoniae 19701", "format": "cell-based, Klebsiella pneumoniae", "conditions": "Klebsiella pneumoniae; K. pneumoniae 19701 (KPC-2); read-out: agar MIC"}, "[33]": {"system": "E. cloacae 0060", "assay": "Agar MIC, E. cloacae 0060", "format": "cell-based", "conditions": "Enterobacter cloacae; E. cloacae 0060 (cAmpC)"}, "[34]": {"conditions": "assumed for free-drug profiles; cited from earlier work"}}, "note": "“And” between values parts separate entries of the source, which are not always exact repeats. Identical values can stand only once. Counter-ions that a name gives are not always drawn.", "data": [{"smiles": "NC(=O)[C@@H]1CC[C@@H]2CN1C(=O)N2OS(=O)(=O)O", "note": "[avibactam, [2S,5R]-2-carbamoyl-7-oxo-1,6-diazabicyclo[3.2.1]octan-6-yl hydrogen sulfate]", "values": [{"measurement": "Microbroth MIC", "setting": "[1]", "value": "64 mg/L and 32 mg/L"}, {"measurement": "MIC", "setting": "[2]", "value": 64, "unit": "mg/L"}, {"measurement": "MIC", "setting": "[3]", "value": 8, "unit": "mg/L"}, {"measurement": "MIC", "setting": "[4]", "value": 8, "unit": "mg/L"}, {"measurement": "MIC", "setting": "[5]", "value": 32, "unit": "mg/L"}, {"measurement": "MIC", "setting": "[6]", "value": 64, "unit": "mg/L"}, {"measurement": "MIC", "setting": "[7]", "value": 32, "unit": "mg/L"}, {"measurement": "MIC", "setting": "[8]", "value": 16, "unit": "mg/L"}, {"measurement": "MIC", "setting": "[9]", "value": 16, "unit": "mg/L"}, {"measurement": "MIC", "setting": "[10]", "value": 16, "unit": "mg/L"}, {"measurement": "oral bioavailability", "setting": "[11]", "value": "about 6 % F"}, {"measurement": "MIC", "setting": "[12]", "value": 128, "unit": "mg/L"}, {"measurement": "MIC", "setting": "[13]", "value": 256, "unit": "mg/L"}, {"measurement": "MIC", "setting": "[14]", "value": 16, "unit": "mg/L"}, {"measurement": "MIC", "setting": "[15]", "value": 64, "unit": "mg/L"}, {"measurement": "MIC", "setting": "[16]", "value": 16, "unit": "mg/L"}, {"measurement": "MIC", "setting": "[17]", "value": 32, "unit": "mg/L"}, {"measurement": "MIC", "setting": "[18]", "value": 32, "unit": "mg/L"}, {"measurement": "MIC", "setting": "[19]", "value": "> 512", "unit": "mg/L"}, {"measurement": "MIC", "setting": "[20]", "value": 128, "unit": "mg/L"}, {"measurement": "MIC", "setting": "[21]", "value": 8, "unit": "mg/L"}, {"measurement": "MIC", "setting": "[22]", "value": 512, "unit": "mg/L"}, {"measurement": "MIC", "setting": "[23]", "value": 8, "unit": "mg/L"}, {"measurement": "MIC", "setting": "[24]", "value": 8, "unit": "mg/L"}, {"measurement": "MIC", "setting": "[25]", "value": 16, "unit": "mg/L"}, {"measurement": "MIC", "setting": "[26]", "value": 8, "unit": "mg/L"}, {"measurement": "MIC", "setting": "[27]", "value": 16, "unit": "mg/L"}, {"measurement": "MIC", "setting": "[28]", "value": 16, "unit": "mg/L"}, {"measurement": "MIC", "setting": "[29]", "value": 16, "unit": "mg/L"}, {"measurement": "Microbroth MIC", "setting": "[30]", "value": "16 mg/L and 32 mg/L"}, {"measurement": "MIC", "setting": "[31]", "value": 16, "unit": "mg/L"}, {"measurement": "MIC", "setting": "[32]", "value": 32, "unit": "mg/L"}, {"measurement": "MIC", "setting": "[33]", "value": 16, "unit": "mg/L"}, {"measurement": "plasma protein binding", "setting": "[34]", "value": 6.95, "unit": "%"}]}]}
